Read-outs that look alike come from different tables or passages of the source.

For assay [1], the target named is T1, Y156F-DAT (Homo sapiens, UniProt Q01959, Y156F).
T1 construct: expressed in transfected cells; host or cells: COS-7
Particulars: cited from earlier work.

For the next assay, the target named is T2, DAT-XC/W84C mutant (Homo sapiens, UniProt Q01959, C306A/W84C).
T2 construct: expressed in transfected cells; host or cells: HEK-293
T2 sequence (Q01959 1-620 W84C/C306A): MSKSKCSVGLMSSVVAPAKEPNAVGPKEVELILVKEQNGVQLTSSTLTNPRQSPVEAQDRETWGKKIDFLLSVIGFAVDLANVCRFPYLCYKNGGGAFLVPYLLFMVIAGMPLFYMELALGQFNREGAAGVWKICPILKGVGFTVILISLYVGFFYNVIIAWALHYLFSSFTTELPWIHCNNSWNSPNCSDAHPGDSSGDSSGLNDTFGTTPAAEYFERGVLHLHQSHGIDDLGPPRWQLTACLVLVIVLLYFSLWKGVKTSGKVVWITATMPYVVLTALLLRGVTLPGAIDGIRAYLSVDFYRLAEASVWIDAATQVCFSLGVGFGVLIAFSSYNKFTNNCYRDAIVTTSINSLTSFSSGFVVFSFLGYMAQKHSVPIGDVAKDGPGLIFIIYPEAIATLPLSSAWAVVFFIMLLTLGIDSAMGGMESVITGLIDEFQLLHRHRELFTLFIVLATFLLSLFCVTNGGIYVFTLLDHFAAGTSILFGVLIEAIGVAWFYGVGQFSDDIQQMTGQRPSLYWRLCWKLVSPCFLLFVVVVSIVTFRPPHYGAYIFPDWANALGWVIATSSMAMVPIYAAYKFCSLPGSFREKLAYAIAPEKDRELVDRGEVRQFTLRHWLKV
Nature of the assay: Substituted cysteine scanning (SCAM) MTSEA-biotin biotinylation in HEK-293 cells. The assay is classed as cell-based.

The target of assay [2] is T3, Y335A-DAT (Homo sapiens, UniProt Q01959, Y335A).
T3 construct: expressed in transfected cells; host or cells: COS-7
Particulars: cited from earlier work.

A further assay has as its target T4, hDAT (Homo sapiens, UniProt Q01959).
T4 construct: expressed in transfected cells; host or cells: COS-7
Description: [3H]-dopamine transport inhibition assay in transiently transfected COS-7 cells. As to conditions: for IC50: mean ± SEM. The assay is classed as cell-based. The method, then:
(§1) Transiently transfected COS-7 cells (expressing hDAT, hNET, or hSERT) were plated in 96-well plates. Uptake experiments were performed 2 days later. The media was removed, and the cells were washed with PBS-CM. Following washing, the cells were incubated for 10 min with various concentrations of sydnocarb, and the uptake was initiated by adding [^3H]-dopamine to a final concentration of 25 nM. The uptake was allowed to continue for 10 min at room temperature and was terminated by washing twice with PBS-CM. The cells were solubilized in a scintillation cocktail and counted on a microplate scintillation and luminescence counter (PerkinElmer, Waltham, MA, USA). Data were fitted to a Hill equation by a nonlinear regression analysis to obtain the IC50 values.

A further assay has as its target T5, hNET (Homo sapiens, UniProt P23975).
T5 construct: expressed in transfected cells; host or cells: COS-7
Description: Radioactive neurotransmitter transport inhibition assay in transiently transfected COS-7 cells. The assay is classed as cell-based. As to conditions: hNET transiently transfected COS-7 cells; mean ± SEM, three independent experiments (Figure 1A). The method, then: as §1

A further assay concerns the target T6, hSERT (Homo sapiens, UniProt P31645).
T6 construct: expressed in transfected cells; host or cells: COS-7
The assay is described as above. As to conditions: hSERT transiently transfected COS-7 cells, mean ± SEM, three independent experiments (Figure 1A). The assay is classed as cell-based. The procedure: as §1

A further assay concerns the target T7, wild-type DAT (Homo sapiens, UniProt Q01959).
T7 construct: expressed in transfected cells; host or cells: COS-7
Nature of the assay: [3H]-DA uptake kinetic assay in COS-7 cells (Michaelis-Menten). The assay is classed as cell-based. Particulars: vehicle 634.8 ± 84.62, four independent experiments. The method, then:
Transport assays were performed as described previously. Briefly, COS-7 cells were transfected and plated in 96-well plates. Uptake experiments were performed 2 days after transfection. The media was removed, and the cells were washed with PBS (137-mM NaCl, 2.7-mM KCl, 4.3-mM Na2HPO4, and 1.4-mM KH2PO4, pH 7.4) containing 0.1-mM CaCl2, 1-mM MgCl2, […], and […] (PBSCM). Following washing, a constant concentration of radiolabeled substrate (50-nM [^3H]-DA) and increasing concentrations of unlabeled substrate (0.05–100-μM DA) were added, and the uptake was allowed to continue for 10 min at room temperature. The uptake was terminated by washing twice with PBS-CM. The cells were solubilized in scintillation cocktail and counted on a microplate scintillation and luminescence counter (PerkinElmer, Waltham, MA, USA). Background was obtained from non-transfected cells and subtracted. Data were fitted to a Michaelis−Menten equation using nonlinear regression to obtain Km and Vmax.

In assay [3] the target is T1, Y156F-DAT. Nature of the assay: DA uptake inhibition assay in COS-7 cells expressing DAT mutant. The assay is classed as cell-based. The method, then: as §1
In assay [4] the target is T3, Y335A-DAT. Described as above. The assay is classed as cell-based. The procedure:
as §1

T3 sequence (Q01959 whole entry Y335A): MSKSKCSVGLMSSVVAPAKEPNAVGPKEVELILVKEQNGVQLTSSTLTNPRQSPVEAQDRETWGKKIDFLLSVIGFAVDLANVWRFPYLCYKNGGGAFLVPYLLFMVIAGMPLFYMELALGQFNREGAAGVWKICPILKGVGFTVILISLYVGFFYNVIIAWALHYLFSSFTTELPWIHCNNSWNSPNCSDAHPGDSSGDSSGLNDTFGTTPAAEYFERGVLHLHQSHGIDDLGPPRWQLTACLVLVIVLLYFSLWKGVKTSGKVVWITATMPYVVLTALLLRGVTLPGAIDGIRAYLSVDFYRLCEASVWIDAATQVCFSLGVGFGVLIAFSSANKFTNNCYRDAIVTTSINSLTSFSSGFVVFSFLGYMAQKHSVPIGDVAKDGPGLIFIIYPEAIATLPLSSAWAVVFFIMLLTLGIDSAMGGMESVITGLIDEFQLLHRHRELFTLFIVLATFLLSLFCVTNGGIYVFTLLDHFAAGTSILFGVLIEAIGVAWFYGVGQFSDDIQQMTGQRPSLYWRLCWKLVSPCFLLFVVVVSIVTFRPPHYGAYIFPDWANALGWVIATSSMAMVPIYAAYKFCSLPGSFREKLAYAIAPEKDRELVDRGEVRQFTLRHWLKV
T4 sequence (Q01959 whole entry): as the sequence (Q01959 whole entry Y335A) above, with A335Y counted along it
T1 sequence (Q01959 whole entry Y156F): as the sequence (Q01959 whole entry Y335A) above, with Y156F, A335Y counted along it
T6 sequence (P31645 whole entry): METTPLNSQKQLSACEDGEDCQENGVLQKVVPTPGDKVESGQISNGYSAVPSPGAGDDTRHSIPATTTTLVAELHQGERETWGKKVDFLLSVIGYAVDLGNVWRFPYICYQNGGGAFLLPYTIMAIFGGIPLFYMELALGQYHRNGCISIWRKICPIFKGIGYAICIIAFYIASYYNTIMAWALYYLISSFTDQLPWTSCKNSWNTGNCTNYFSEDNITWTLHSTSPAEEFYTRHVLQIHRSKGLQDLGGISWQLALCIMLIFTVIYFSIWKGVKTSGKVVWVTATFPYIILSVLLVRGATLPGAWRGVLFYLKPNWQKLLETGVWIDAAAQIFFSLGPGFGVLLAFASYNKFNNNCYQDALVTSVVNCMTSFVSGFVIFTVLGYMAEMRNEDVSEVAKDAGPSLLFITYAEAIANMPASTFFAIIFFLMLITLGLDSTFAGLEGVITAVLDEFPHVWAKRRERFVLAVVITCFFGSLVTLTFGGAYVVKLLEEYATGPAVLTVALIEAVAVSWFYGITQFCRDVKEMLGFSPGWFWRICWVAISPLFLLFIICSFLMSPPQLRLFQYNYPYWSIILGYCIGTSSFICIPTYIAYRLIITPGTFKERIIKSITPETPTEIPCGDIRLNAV
T7 sequence (Q01959 whole entry): as the sequence (Q01959 whole entry Y335A) above, with A335Y counted along it
T5 sequence (P23975 whole entry): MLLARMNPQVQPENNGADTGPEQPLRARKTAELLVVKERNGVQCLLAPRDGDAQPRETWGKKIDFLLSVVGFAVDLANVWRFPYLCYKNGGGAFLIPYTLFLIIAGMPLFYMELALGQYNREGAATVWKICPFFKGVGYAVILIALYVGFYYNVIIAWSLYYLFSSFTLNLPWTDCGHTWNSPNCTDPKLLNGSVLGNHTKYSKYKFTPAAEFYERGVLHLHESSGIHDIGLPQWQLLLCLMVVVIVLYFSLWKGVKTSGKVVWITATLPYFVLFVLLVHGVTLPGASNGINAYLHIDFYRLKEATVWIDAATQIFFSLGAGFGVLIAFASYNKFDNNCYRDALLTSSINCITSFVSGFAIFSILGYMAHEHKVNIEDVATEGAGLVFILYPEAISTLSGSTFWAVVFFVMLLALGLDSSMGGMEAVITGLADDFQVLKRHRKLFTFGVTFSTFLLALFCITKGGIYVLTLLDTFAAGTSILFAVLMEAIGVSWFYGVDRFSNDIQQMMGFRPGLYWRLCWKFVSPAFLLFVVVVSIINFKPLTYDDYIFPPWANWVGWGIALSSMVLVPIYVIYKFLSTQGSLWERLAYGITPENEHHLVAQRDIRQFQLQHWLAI
Description for DAT-XC/W84C mutant: Briefly, HEK-293 cells were transiently transfected and cultured to confluency in a 6-well plate. The cells were washed with ice-cold PBS-CM (pH 7.4) twice and incubated at 4 °C with vehicle or sydnocarb (0.5 or 2 μM) for 10 min, followed by the addition of MTSEA-biotin (125 μM, final concentration). After 10-min incubation at 4 °C, the biotinylation was quenched by aspirating the liquid and washing the cells with 1-mM DTT in PBS-CM, followed by a final wash with PBS-CM only. The cells were lysed in 600 μL of TNE lysis buffer (pH 7.4) containing protease inhibitors (100×) for 40 min at 4 °C. The cells were collected and centrifuged at 12,000× g for 10 min at 4 °C. The supernatant was collected, of which 30 μL was mixed with DTT (0.5 M, 5 μL) and LDS Nu-page (15 μL) for the total lysate sample, and saved at −20 °C. Four hundred and fifty microliters of the supernatant were incubated overnight at 4 °C with 50 μL of 50% slurry of high-capacity neutravidin agarose resin. The beads containing “biotinylated” proteins were washed with ice-cold TNE lysis three times, followed by a final wash with PBS-CM, and then mixed with LDL Nu-page (15 μL), DTT (0.5 M, 5 μL), and water (30 μL). […] Densities of he DAT bands were analyzed with an Odyssey imaging system and associated ImageStudio software (LI-COR, Lincoln, NE, USA).

In the case of `CCCCN1[C@@H]2CC[C@H]1CC(OC(c1ccc(F)cc1)c1ccc(F)cc1)C2` (stereo partly shown) [JHW-007], the “effect of Y156F mutation on potency” value on Y156F-DAT [1] is given as “significantly reduced”.
`COC(=O)[C@H]1[C@@H](OC(=O)c2ccccc2)C[C@@H]2CC[C@H]1N2C` [cocaine]: the “labeling of W84C with MTSEA-biotin” value on DAT-XC/W84C mutant (coincubation with 100 µM cocaine (negative control)) is “not affected”. Also, the “effect of Y156F mutation on binding affinities” value on Y156F-DAT [1] is “unaffected”. Also, at Y335A-DAT [2], the “effect of Y335A mutation on potency” value is given as “markedly impaired”.
Consider `CC(Cc1ccccc1)[n+]1cc([N-]C(=O)Nc2ccccc2)on1` (stereo not shown) [sydnocarb], for which the IC50 – broadly, the midpoint of a concentration-inhibition curve – on hDAT (WT-DAT-transfected COS-7 cells, mutant comparison (Figure 6), three independent experiments, read-out: IC50, DA uptake inhibition) was 439 ± 135 nM; on hDAT (hDAT transiently transfected COS-7 cells, three independent experiments (Figure 1A), listed as Sydnocarb, read-out: IC50, transport inhibition), 493 ± 140 nM; on hDAT (hDAT transiently transfected COS-7 cells, three independent experiments (Figure 1A), read-out: IC50, transport inhibition) it was 490 ± 140 nM; on hNET it was 34900 ± 14100 nM; at hSERT, 495000 ± 17000 nM; on hSERT (listed as Sydnocarb), 495000 ± 17000 nM. The IC50 at Y156F-DAT [3] (Y156F-DAT-transfected COS-7 cells, mean ± SEM, three independent experiments) is 262 ± 118 nM; on Y335A-DAT [4] (Y335A-DAT-transfected COS-7 cells, mean ± SEM, three independent experiments) it was 1420 ± 201 nM. Besides, the “fold more potent towards hDAT than towards hNET” value on hDAT (from dose-response IC50 values) is 70 fold. Moreover, the “fold more potent towards hDAT than towards hSERT” value at hDAT (from dose-response IC50 values) is 1000 fold. The figures for the “Vmax of DAT-mediated [3H]-DA uptake” value at wild-type DAT (in the presence of 0.5 µM Sydnocarb) and at wild-type DAT (in the presence of 2.0 µM Sydnocarb) were 455.6 ± 89.6 femtomole/min/well and 195 ± 80.7 femtomole/min/well, respectively. In addition, on DAT-XC/W84C mutant (coincubation with 1 µM sydnocarb, four independent experiments), the “biotinylation of W84C by MTSEA-biotin” value is listed as “significantly decreased”. The “change in potency, Y156F-DAT versus WT-DAT” value on Y156F-DAT [3] (COS-7 cells) is listed as “no significant changes”. The “reduction of potency for Y335A-DAT compared with WT-DAT” value on Y335A-DAT [4] (COS-7 cells) came out at 3.5 fold.
